Test results reported in ChEMBL document CHEMBL3046796, “Evaluation of a new lead for acetylcholinesterase inhibition” (Med Chem Res, 2009).
pIC50: −log10 of the molar value.

Columns and labels:
Acetylcholinesterase = Acetylcholinesterase (Electrophorus electricus, UniProt O42275); experiment: Inhibition of Electrophorus electricus (electric eel) acetylcholinesterase (AChE) using […] as substrate by Ellman method
[1] = target: Acetylcholinesterase (Electrophorus electricus) (UniProt O42275); experiment: Inhibition of Electrophorus electricus (electric eel) acetylcholinesterase (AChE) using […] as substrate at 10 '-5 M by Ellman method
Sequence of Acetylcholinesterase (Electrophorus electricus) (O42275 24-633 limits assumed): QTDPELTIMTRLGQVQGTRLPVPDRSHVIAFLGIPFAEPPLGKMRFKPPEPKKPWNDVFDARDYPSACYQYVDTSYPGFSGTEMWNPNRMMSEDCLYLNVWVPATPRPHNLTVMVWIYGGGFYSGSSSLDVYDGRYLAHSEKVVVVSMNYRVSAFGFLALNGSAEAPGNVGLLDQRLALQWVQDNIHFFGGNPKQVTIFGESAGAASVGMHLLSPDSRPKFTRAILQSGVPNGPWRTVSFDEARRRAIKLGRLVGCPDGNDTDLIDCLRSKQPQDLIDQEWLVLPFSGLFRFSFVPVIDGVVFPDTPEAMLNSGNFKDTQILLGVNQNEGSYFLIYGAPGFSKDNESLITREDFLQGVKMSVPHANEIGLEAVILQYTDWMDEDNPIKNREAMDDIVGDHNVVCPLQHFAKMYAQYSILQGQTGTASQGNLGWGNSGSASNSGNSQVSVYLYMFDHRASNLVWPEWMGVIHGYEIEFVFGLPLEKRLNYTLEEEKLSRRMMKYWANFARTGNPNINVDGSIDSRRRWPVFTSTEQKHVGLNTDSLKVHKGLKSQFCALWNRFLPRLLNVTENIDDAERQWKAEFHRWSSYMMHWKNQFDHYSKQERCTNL

[2] = target: Cholinesterase (Equus caballus) (UniProt P81908); experiment: Inhibition of Equus caballus (horse) serum butyrylcholinesterase (BChE) at 10 '-5 M by Ellman method
Sequence of Cholinesterase (Equus caballus) (P81908 whole entry): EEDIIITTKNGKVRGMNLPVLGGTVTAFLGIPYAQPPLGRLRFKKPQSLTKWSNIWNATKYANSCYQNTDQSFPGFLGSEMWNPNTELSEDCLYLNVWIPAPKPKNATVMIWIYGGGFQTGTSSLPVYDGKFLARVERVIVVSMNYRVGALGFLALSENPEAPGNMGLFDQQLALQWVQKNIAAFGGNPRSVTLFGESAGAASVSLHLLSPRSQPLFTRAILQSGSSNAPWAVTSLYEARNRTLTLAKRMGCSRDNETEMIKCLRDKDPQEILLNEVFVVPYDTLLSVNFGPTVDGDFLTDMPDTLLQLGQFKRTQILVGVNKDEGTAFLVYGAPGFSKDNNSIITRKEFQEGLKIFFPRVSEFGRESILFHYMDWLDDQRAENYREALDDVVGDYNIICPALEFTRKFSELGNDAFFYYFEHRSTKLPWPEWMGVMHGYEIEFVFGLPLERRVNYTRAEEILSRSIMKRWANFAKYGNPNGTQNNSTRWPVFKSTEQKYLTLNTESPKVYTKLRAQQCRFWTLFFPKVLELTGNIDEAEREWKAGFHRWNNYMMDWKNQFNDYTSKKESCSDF

[3] = target: Cholinesterase (Equus caballus) (UniProt P81908); experiment: Inhibition of Equus caballus (horse) serum butyrylcholinesterase (BChE) at 10 '-4 M by Ellman method

Sequence of Acetylcholinesterase (O42275 whole entry): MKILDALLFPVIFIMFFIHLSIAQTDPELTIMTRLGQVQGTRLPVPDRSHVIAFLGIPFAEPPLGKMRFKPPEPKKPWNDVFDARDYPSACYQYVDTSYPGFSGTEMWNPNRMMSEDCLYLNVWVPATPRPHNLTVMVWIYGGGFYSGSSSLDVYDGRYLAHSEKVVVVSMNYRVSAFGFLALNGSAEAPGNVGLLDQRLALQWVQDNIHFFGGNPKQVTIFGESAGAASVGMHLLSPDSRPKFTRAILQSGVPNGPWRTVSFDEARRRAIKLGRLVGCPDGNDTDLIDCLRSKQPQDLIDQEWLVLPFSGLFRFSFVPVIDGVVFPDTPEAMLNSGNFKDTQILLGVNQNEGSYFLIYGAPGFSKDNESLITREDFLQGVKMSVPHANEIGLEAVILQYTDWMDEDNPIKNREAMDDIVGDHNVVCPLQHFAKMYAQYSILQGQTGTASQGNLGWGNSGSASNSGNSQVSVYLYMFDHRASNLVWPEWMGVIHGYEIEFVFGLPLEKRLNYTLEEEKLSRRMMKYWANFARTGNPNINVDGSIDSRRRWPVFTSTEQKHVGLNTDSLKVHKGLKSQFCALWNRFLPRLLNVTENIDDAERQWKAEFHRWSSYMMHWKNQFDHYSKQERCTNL

| SMILES | pIC50 (Acetylcholinesterase) | inhibition [1] [%] | inhibition [2] [%] | inhibition [3] [%] |
| --- | --- | --- | --- | --- |
| COc1ccc(C(O)c2nccc3cc(OC)c(OC)cc23)cc1OC (stereo not drawn) | 4.97 |  |  |  |
| COc1ccc(C(=O)c2nccc3cc(OC)c(OC)cc23)cc1OC |  | 2.3 |  |  |
| COc1ccc(Cc2nccc3cc(OC)c(OC)cc23)cc1OC [PAPAVERINE] | 4.61 |  |  |  |
| COc1ccc(CCNC(=O)Cc2ccc(OC)c(OC)c2)cc1OC |  | 5.9 | 0 | 1.7 |
| COc1ccc(CC2=NCCc3cc(OC)c(OC)cc32)cc1OC | 5.15 | 53 | 0 | 18 |
| COc1ccc(CC2NCCc3cc(OC)c(OC)cc32)cc1OC (stereo not drawn) |  | 9 | 5.2 | 17.4 |
